From patent US20090062294A1, “HETEROARYL-SUBSTITUTED UREA MODULATORS OF FATTY ACID AMIDE HYDROLASE” (priority 2007, published 2009)
Where a name gives a salt, the structure may show the parent alone.

Legend:
FAAH = biological target: T1, FAAH (Homo sapiens, UniProt O00519); test: Assay Method 1: FAAH assay, 3H-anandamide hydrolysis in homogenate of T84 cells or SK-N-MC cells transfected with human FAAH; assay type: biochemical; conditions: average of results, > = solubility limit or highest concentration tested
T1 sequence (O00519 1-579): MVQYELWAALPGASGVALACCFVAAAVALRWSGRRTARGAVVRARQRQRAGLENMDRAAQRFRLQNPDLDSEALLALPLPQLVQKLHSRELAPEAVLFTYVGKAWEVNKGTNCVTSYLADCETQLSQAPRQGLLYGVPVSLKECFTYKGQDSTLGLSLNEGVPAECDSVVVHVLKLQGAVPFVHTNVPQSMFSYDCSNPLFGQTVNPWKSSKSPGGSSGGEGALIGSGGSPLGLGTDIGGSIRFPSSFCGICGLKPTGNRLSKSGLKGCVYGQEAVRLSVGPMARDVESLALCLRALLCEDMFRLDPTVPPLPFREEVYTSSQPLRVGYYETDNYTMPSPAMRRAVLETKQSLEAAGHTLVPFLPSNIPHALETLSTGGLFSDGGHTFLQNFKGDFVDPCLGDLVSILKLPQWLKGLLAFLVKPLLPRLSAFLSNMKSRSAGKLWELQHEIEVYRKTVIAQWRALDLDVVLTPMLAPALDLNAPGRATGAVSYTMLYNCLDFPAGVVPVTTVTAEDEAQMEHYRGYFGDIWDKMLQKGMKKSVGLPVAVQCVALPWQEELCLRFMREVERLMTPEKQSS
Procedure, shortened: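 Homogenates of T84 cells or of SK-N-MC cells stably transfected with human FAAH (G418-selected) were prepared in pH 9 Tris/EDTA/glycerol/Triton buffer. They were incubated with compound and 80 nM final ^3H-anandamide for 1 h at rt. Released ^3H-ethanolamine was separated on activated charcoal and counted by scintillation.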

rat FAAH = biological target: T2, rat FAAH (Rattus norvegicus, UniProt P97612); test: Assay Method 2: FAAH assay, 3H-anandamide hydrolysis in homogenate of SK-N-MC cells transfected with rat FAAH; assay type: biochemical; conditions: average of results, > = solubility limit or highest concentration tested
T2 sequence (P97612 1-579): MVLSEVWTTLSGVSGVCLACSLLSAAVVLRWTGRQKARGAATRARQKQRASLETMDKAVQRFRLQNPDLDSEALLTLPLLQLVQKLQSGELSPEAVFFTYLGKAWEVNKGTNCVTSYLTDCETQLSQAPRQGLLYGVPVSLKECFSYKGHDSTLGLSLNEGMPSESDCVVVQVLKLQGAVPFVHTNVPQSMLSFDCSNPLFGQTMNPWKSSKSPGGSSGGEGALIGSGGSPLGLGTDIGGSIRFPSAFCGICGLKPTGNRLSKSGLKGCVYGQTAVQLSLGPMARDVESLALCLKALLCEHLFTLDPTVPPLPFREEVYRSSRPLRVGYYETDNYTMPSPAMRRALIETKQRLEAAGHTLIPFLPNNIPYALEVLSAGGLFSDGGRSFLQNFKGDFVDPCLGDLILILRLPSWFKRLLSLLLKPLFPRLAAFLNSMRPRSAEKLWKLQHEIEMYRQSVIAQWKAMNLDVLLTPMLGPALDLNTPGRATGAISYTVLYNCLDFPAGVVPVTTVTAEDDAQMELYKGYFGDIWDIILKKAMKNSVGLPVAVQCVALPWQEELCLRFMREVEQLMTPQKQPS
Procedure, shortened: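 Homogenate of SK-N-MC cells stably transfected with rat FAAH cDNA (G418-selected clones) in pH 9 Tris/EDTA/glycerol/Triton buffer. Incubated with compound and 80 nM final [3H]-anandamide for 1 h at rt. Released [3H]-ethanolamine separated from substrate on activated charcoal filters and counted by scintillation.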

O=C(Nc1noc2ccccc12)N1CCN(Cc2cccc(C#Cc3ccc(Cl)cc3)c2)CC1 [Example 74, N-1,2-Benzisoxazol-3-yl-4-{3-[(4-chlorophenyl)ethynyl]benzyl}-piperazine-1-carboxamide]
IC50 (FAAH): 410 nM | IC50 (rat FAAH): 325 nM

O=C(Nc1noc2ccccc12)N1CCN(Cc2cccc(C#Cc3ccc(Cl)c(Cl)c3)c2)CC1 [Example 75, N-1,2-Benzisoxazol-3-yl-4-{3-[(3,4-dichlorophenyl)ethynyl]-benzyl}-piperazine-1-carboxamide]
IC50 (FAAH): 123 nM | IC50 (rat FAAH): 110 nM

O=C(Nc1noc2ccccc12)N1CCN(Cc2cccc(C#CC3CC3)c2)CC1 [Example 76, N-1,2-Benzisoxazol-3-yl-4-[3-(cyclopropylethynyl)benzyl]-piperazine-1-carboxamide]
IC50 (FAAH): 10 nM | IC50 (rat FAAH): 400 nM

O=C(Nc1noc2ccccc12)N1CCN(Cc2cccc(C#Cc3ccsc3)c2)CC1 [Example 77, N-1,2-Benzisoxazol-3-yl-4-[3-(thiophen-3-ylethynyl)benzyl]-piperazine-1-carboxamide]
IC50 (FAAH): 12 nM | IC50 (rat FAAH): 64 nM

O=C(Nc1cnccn1)N1CCN(Cc2cccc(C#Cc3ccccc3Cl)c2)CC1 [Example 78, 4-{3-[(2-Chlorophenyl)ethynyl]benzyl}-N-pyrazin-2-ylpiperazine-1-carboxamide hydrochloride salt]
IC50 (FAAH): 59 nM | IC50 (rat FAAH): 410 nM

O=C(Nc1cccnn1)N1CCN(Cc2cccc(C#Cc3ccccc3Cl)c2)CC1 [Example 79, 4-{3-[(2-Chlorophenyl)ethynyl]benzyl}-N-pyridazin-3-ylpiperazine-1-carboxamide]
IC50 (FAAH): 46 nM | IC50 (rat FAAH): 320 nM

Cc1cnc(NC(=O)N2CCN(Cc3cccc(C#Cc4ccccc4Cl)c3)CC2)cn1 [Example 80, 4-{3-[(2-Chlorophenyl)ethynyl]benzyl}-N-(5-methylpyrazin-2-yl)piperazine-1-carboxamide]
IC50 (FAAH): 5000 nM | IC50 (rat FAAH): 4000 nM

O=C(Nc1noc2ccccc12)N1CCN(Cc2cccc(C#Cc3ccc(Cl)cc3Cl)c2)CC1 [Example 81, N-1,2-Benzisoxazol-3-yl-4-{3-[(2,4-dichlorophenyl)-ethynyl]benzyl}-piperazine-1-carboxamide]
IC50 (FAAH): 453 nM | IC50 (rat FAAH): 238 nM

O=C(Nc1noc2ccccc12)N1CCN(Cc2cccc(C#Cc3ccccc3OC(F)(F)F)c2)CC1 [Example 82, N-1,2-Benzisoxazol-3-yl-4-(3-{[2-(trifluoromethoxy)phenyl]-ethynyl}benzyl)-piperazine-1-carboxamide]
IC50 (FAAH): 272 nM | IC50 (rat FAAH): 256 nM

O=C(Nc1noc2ccccc12)N1CCN(Cc2cccc(C#Cc3cc(Cl)cc(Cl)c3)c2)CC1 [Example 83, N-1,2-Benzisoxazol-3-yl-4-{3-[(3,5-dichlorophenyl)ethynyl]benzyl}-piperazine-1-carboxamide]
IC50 (FAAH): 35 nM | IC50 (rat FAAH): 20 nM

O=C(Nc1noc2ccccc12)N1CCN(Cc2cccc(C#Cc3cc(Cl)ccc3Cl)c2)CC1 [Example 84, N-1,2-Benzisoxazol-3-yl-4-{3-[(2,5-dichlorophenyl)ethynyl]benzyl}-piperazine-1-carboxamide]
IC50 (FAAH): 16 nM | IC50 (rat FAAH): 295 nM

N#Cc1ccccc1C#Cc1cccc(CN2CCN(C(=O)Nc3noc4ccccc34)CC2)c1 [Example 85, N-1,2-Benzisoxazol-3-yl-4-{3-[(2-cyanophenyl)ethynyl]benzyl}-piperazine-1-carboxamide]
IC50 (FAAH): 18 nM | IC50 (rat FAAH): 23 nM

O=C(Nc1noc2ccccc12)N1CCN(Cc2cccc(C#Cc3cccc4ccccc34)c2)CC1 [Example 86, N-1,2-Benzisoxazol-3-yl-4-[3-(naphthalen-1-ylethynyl)benzyl]piperazine-1-carboxamide]
IC50 (FAAH): 3000 nM | IC50 (rat FAAH): 580 nM

COC(=O)c1ccccc1C#Cc1cccc(CN2CCN(C(=O)Nc3noc4ccccc34)CC2)c1 [Example 87, Methyl 2-[(3-{[4-(1,2-benzisoxazol-3-ylcarbamoyl)piperazin-1-yl]methyl}phenyl)ethynyl]benzoate]
IC50 (FAAH): 2000 nM | IC50 (rat FAAH): 480 nM

N#Cc1cccc(C#Cc2cccc(CN3CCN(C(=O)Nc4noc5ccccc45)CC3)c2)c1 [Example 88, N-1,2-Benzisoxazol-3-yl-4-{3-[(3-cyanophenyl)ethynyl]benzyl}piperazine-1-carboxamide]
IC50 (FAAH): 15 nM | IC50 (rat FAAH): 65 nM

O=C(Nc1noc2ccccc12)N1CCN(Cc2cccc(C#Cc3ccc4c(c3)OCO4)c2)CC1 [Example 89, N-1,2-Benzisoxazol-3-yl-4-[3-(1,3-benzodioxol-5-ylethynyl)benzyl]-piperazine-1-carboxamide]
IC50 (FAAH): 645 nM | IC50 (rat FAAH): 544 nM

O=C(Nc1noc2ccccc12)N1CCN(Cc2cccc(C#Cc3cccc(Cl)c3Cl)c2)CC1 [Example 90, N-1,2-Benzisoxazol-3-yl-4-{3-[(2,3-dichlorophenyl)ethynyl]benzyl}-piperazine-1-carboxamide]
IC50 (FAAH): 195 nM | IC50 (rat FAAH): 815 nM

N#Cc1c(F)cccc1C#Cc1cccc(CN2CCN(C(=O)Nc3noc4ccccc34)CC2)c1 [Example 91, N-1,2-Benzisoxazol-3-yl-4-{3-[(2-cyano-3-fluorophenyl)ethynyl]-benzyl}piperazine-1-carboxamide]
IC50 (FAAH): 30 nM | IC50 (rat FAAH): 21 nM

N#CCc1ccccc1C#Cc1cccc(CN2CCN(C(=O)Nc3noc4ccccc34)CC2)c1 [Example 92, N-1,2-Benzisoxazol-3-yl-4-(3-{[2-(cyanomethyl)phenyl]ethynyl}-benzyl)piperazine-1-carboxamide]
IC50 (FAAH): 27 nM | IC50 (rat FAAH): 262 nM

COC(=O)Cc1ccccc1C#Cc1cccc(CN2CCN(C(=O)Nc3noc4ccccc34)CC2)c1 [Example 93, Methyl {2-[(3-{[4-(1,2-benzisoxazol-3-ylcarbamoyl)piperazin-1-yl]methyl}phenyl)ethynyl]phenyl}acetate]
IC50 (FAAH): 102 nM | IC50 (rat FAAH): 225 nM

Cc1ccccc1CCc1cccc(CN2CCN(C(=O)Nc3noc4ccccc34)CC2)c1 [Example 94, 4-[3-(2-o-Tolyl-ethyl)-benzyl]-piperazine-1-carboxylic acid benzo[d]isoxazol-3-ylamide hydrochloride salt]
IC50 (FAAH): 380 nM | IC50 (rat FAAH): 630 nM

O=C(Nc1noc2ccccc12)N1CCN(Cc2cccc(Oc3ccccn3)c2)CC1 [Example 96, N-1,2-Benzisoxazol-3-yl-4-[3-(pyridin-2-yloxy)benzyl]piperazine-1-carboxamide]
IC50 (FAAH): 200 nM | IC50 (rat FAAH): 1100 nM

O=C(Nc1noc2ccccc12)N1CCN(Cc2cccc(Oc3cnccn3)c2)CC1 [Example 97, N-1,2-Benzisoxazol-3-yl-4-[3-(pyrazin-2-yloxy)benzyl]piperazine-1-carboxamide]
IC50 (FAAH): 270 nM | IC50 (rat FAAH): 5000 nM

N#Cc1ccccc1COc1cccc(CN2CCN(C(=O)Nc3noc4ccccc34)CC2)c1 [Example 98, 4-[3-(2-Cyano-benzyloxy)-benzyl]-piperazine-1-carboxylic acid benzo[d]isoxazol-3-ylamide]
IC50 (FAAH): 22 nM | IC50 (rat FAAH): 300 nM

O=C(Nc1noc2ccccc12)N1CCN(Cc2cccc(OCc3ccccc3)c2)CC1 [Example 99, N-1,2-Benzisoxazol-3-yl-4-[3-(benzyloxy)benzyl]piperazine-1-carboxamide]
IC50 (FAAH): 16 nM | IC50 (rat FAAH): 260 nM

O=C(Nc1noc2ccccc12)N1CCN(Cc2ccc3nc[nH]c3c2)CC1 [Example 100, 4-(1H-Benzimidazol-6-ylmethyl)-N-1,2-benzisoxazol-3-ylpiperazine-1-carboxamide]
IC50 (FAAH): > 10000 nM | IC50 (rat FAAH): > 10000 nM

CS(=O)(=O)c1ccc(CN2CCN(C(=O)Nc3noc4ccccc34)CC2)cc1 [Example 102, N-1,2-Benzisoxazol-3-yl-4-[4-(methylsulfonyl)benzyl]piperazine-1-carboxamide]
IC50 (FAAH): > 10000 nM | IC50 (rat FAAH): > 10000 nM

O=C(Nc1noc2ccccc12)N1CCN(Cc2ccc(OC(F)(F)F)cc2)CC1 [Example 103, N-1,2-Benzisoxazol-3-yl-4-[4-(trifluoromethoxy)benzyl]piperazine-1-carboxamide]
IC50 (FAAH): 120 nM | IC50 (rat FAAH): 110 nM
